The values below come from patent US6376710B2, “Amidine compounds and their use as pesticides” (Sumitomo Chemical Co., Ltd., priority 2000, dated 2002).

SMILES strings stand for the structures. Like-named read-outs stand apart in the source and are kept apart here.

Assay type in all cases: in vivo
For test [1], the system named is German cockroach (Blattella germanica). As to the kind of experiment: Test Example 2: treated filter paper with sucrose bait, German cockroach male adults, mortality. The settings on record: 144 h.
The test system of test [2] is house fly (Musca domeestica). As to the kind of experiment: Test Example 3: treated filter paper with sucrose bait, house fly female adults, mortality. Conditions: 24 h. As for the experimental part: On the bottom of a polyethylene cup of 5.5 cm in diameter was placed a filter paper of the same size, to which a water dilution (500 ppm) of each of the formulations obtained from present compounds 1, 2, 3, 4, 5, 6, 7, 8, 9, 10, 11, 12, 13, 14, 15, 16, 17, 18, 19, 20, 21, 25, 26, 27, 28, 29, 32, 33, 34, 35, 36, 37, 38, 39, 40, 41, 42, 43, 44, 45, 47, 51, 52, 53, 54, 55, 60, and 61 according to Formulation Example 1 was added dropwise in an amount of 0.7 ml, and the cup was uniformly charged with about 30 mg of sucrose as a bait. Ten female adults of house fly (Musca domeestica) were set free in each cup, which was then kept covered. After 1 day, their survival was examined to determine the mortality.

For test [3], the system named is common mosquito (Culex pipiens pallens). Description: Test Example 4: treated water, common mosquito final-instar larvae, mortality. Conditions: 192 h.
Setting [4] is: active ingredient 3.5 ppm in ion-exchanged water (0.7 ml of 500 ppm dilution), final-instar larvae, after 8 days, read-out: mortality.
Where [5] appears, read: water dilution (500 ppm) of flowable (Formulation Example 1), 0.7 ml on filter paper, male adults, after 6 days, read-out: mortality.

As to `NC(=Nc1c(Cl)cc(C(F)(F)F)cc1[N+](=O)[O-])C(F)(F)F` [present compound 1, N-(2-chloro-6-nitro-4-trifluoromethylphenyl)-2,2,2-trifluoroacetamidine], the mortality at 500 µg/mL in test [1] and in test [2] was 100% in each case.
As to `NC(=Nc1c(F)cc(C(F)(F)F)cc1F)C(F)(F)F` [present compound 2, N-(2,6-Difluoro-4-trifluoromethylphenyl)-2,2,2-trifluoroacetamidine], the mortality at 500 µg/mL in test [1] and in test [2] was 100% each time.
In the case of `NC(=Nc1c(Cl)cc(C(F)(F)F)cc1Cl)C(F)(F)F` [present compound 3, N-(2,6-Dichloro-4-trifluoromethylphenyl)-2,2,2-trifluoroacetamidine], the mortality at 3.5 ppm in test [3] was found to be 100%. In addition, the mortality at 500 µg/mL in test [1] and in test [2] was 100% in each case.
Consider `NC(=Nc1c(Cl)cc(C(F)(F)F)cc1Cl)C(F)(F)C(F)(F)F` [present compound 4, N-(2,6-dichloro-4-trifluoromethylphenyl)-2,2,3,3,3-pentafluoropropionamidine], for which the mortality at 3.5 ppm in test [3] is 100%. For the same molecule, the mortality at 500 µg/mL in test [1] and in test [2] was 100% in each case.
On to `NC(=Nc1c(Cl)cc(C(F)(F)F)cc1Cl)C(F)(F)Cl` [present compound 5, 2-Chloro-N-(2,6-dichloro-4-trifluoromethylphenyl)-2,2-difluoroacetamidine], for which the mortality at 3.5 ppm in test [3] is 100%. Besides, the mortality at 500 µg/mL in test [1] and in test [2] was 100% throughout.
Take `NC(=Nc1c([N+](=O)[O-])cc(C(F)(F)F)cc1[N+](=O)[O-])C(F)(F)C(F)(F)F` [present compound 6, N-(2,6-Dinitro-4-trifluoromethylphenyl)-2,2,3,3,3-pentafluoropropionamidine]: in test [3], the mortality at 3.5 ppm is 100%. The mortality at 500 µg/mL in test [1] and in test [2] was 100% throughout.
With `NC(=Nc1c(Cl)cc(C(F)(F)F)cc1Cl)C(F)F` [present compound 7, N-(2,6-Dichloro-4-trifluoromethylphenyl)-2,2-difluoroacetamidine], the mortality at 500 µg/mL in test [1] and in test [2] was 100% each time.
For the molecule `NC(=Nc1c(Cl)cc(C(F)(F)F)cc1[N+](=O)[O-])C(F)(F)C(F)(F)F` [present compound 8, N-(2-Chloro-6-nitro-4-trifluoromethylphenyl)-2,2,3,3,3-pentafluoropropionamidine], the mortality at 3.5 ppm in test [3] was found to be 100%. In addition, the mortality at 500 µg/mL in test [1] and in test [2] was 100% in each case.
As to `NC(=Nc1c(F)cc(C(F)(F)F)cc1F)C(F)(F)C(F)(F)F` [present compound 9, N-(2,6-Difluoro-4-trifluoromethylphenyl)-2,2,3,3,3-pentafluoropropionamidine], the mortality at 3.5 ppm in test [3] is 100%. The mortality at 500 µg/mL in test [1] and in test [2] was 100% throughout.
For `NC(=Nc1c(Cl)cc(C(F)(F)F)cc1Br)C(F)(F)C(F)(F)F` [present compound 10, N-(2-Bromo-6-chloro-4-trifluoromethylphenyl)-2,2,3,3,3-pentafluoropropionamidine], the mortality at 3.5 ppm in test [3] stood at 100%. Besides, the mortality at 500 µg/mL in test [1] and in test [2] was 100% each time.
With `NC(=Nc1c(Cl)cc(C(F)(F)F)cc1Cl)C(F)(F)C(F)(F)C(F)(F)F` [present compound 11, N-(2,6-Dichloro-4-trifluoromethylphenyl)-2,2,3,3,4,4,4-heptafluorobutyramidine], in test [3] (setting [4]), the mortality at 3.5 ppm is 100%. Besides, the mortality at 500 µg/mL came to 100% in test [1] (setting [5]) and 100% in test [2] (water dilution (500 ppm) of flowable (Formulation Example 1), 0.7 ml on filter paper, female adults, after 1 day, read-out: mortality).
`NC(=Nc1c(Cl)cc(C(F)(F)F)cc1Cl)C(Cl)Cl` [present compound 12, 2,2-Dichloro-N-(2,6-dichloro-4-trifluoromethylphenyl)acetamidine] gave a mortality at 3.5 ppm in test [3] of 100%. In addition, the mortality at 500 µg/mL in test [1] and in test [2] was 100% throughout.
Turning to `NC(=Nc1c(F)cc(C(F)(F)F)cc1Cl)C(F)(F)F` [present compound 13, N-(2-Chloro-6-fluoro-4-trifluoromethylphenyl)-2,2,2-trifluoroacetamidine], the mortality at 3.5 ppm in test [3] stood at 100%. Moreover, the mortality at 500 µg/mL in test [1] and in test [2] was 100% each time.
With `N#Cc1cc(C(F)(F)F)cc(Cl)c1N=C(N)C(F)(F)C(F)(F)F` [present compound 14, N-(2-Chloro-6-cyano-4-trifluoromethylphenyl)-2,2,3,3,3-pentafluoropropionamidine], the mortality at 3.5 ppm in test [3] was 100%. The mortality at 500 µg/mL in test [1] and in test [2] was 100% in each case.
For `Cc1cc(C(F)(F)F)cc(Cl)c1N=C(N)C(F)(F)C(F)(F)F` [present compound 15, N-(2-Chloro-6-methyl-4-trifluoromethylphenyl)-2,2,3,3,3-pentafluoropropionamidine], the mortality at 3.5 ppm in test [3] was 100%. Further, the mortality at 500 µg/mL in test [1] and in test [2] was 100% in each case.
As for `NC(=Nc1c(Br)cc(OC(F)(F)F)cc1Br)C(F)(F)C(F)(F)F` [present compound 16, N-(2,6-Dibromo-4-trifluoromethoxyphenyl)-2,2,3,3,3-pentafluoropropionamidine], the mortality at 3.5 ppm in test [3] amounted to 100%. The mortality at 500 µg/mL in test [1] and in test [2] was 100% in each case.
With `NC(=Nc1c(Cl)cc(C(F)(F)F)cc1Cl)C(F)(F)C(F)(F)C(F)(F)C(F)(F)F` [present compound 30, N-(2,6-Dichloro-4-trifluoromethylphenyl)-2,2,3,3,4,4,5,5,5-nonafluoropentanamidine], the mortality at 3.5 ppm in test [3] (setting [4]) came out at 100%. Moreover, in test [1] (setting [5]), the mortality at 500 µg/mL worked out at 100%.
As to `NC(=Nc1c(Cl)cc(C(F)(F)F)cc1Cl)C(F)(F)C(F)(F)C(F)(F)C(F)(F)C(F)(F)F` [present compound 31, N-(2,6-Dichloro-4-trifluoromethylphenyl)-2,2,3,3,4,4,5,5,6,6,6-undecafluorohexanamidine], the mortality at 3.5 ppm in test [3] (setting [4]) is 100%.
Regarding `NC(=Nc1c([N+](=O)[O-])cc(C(F)(F)F)cc1[N+](=O)[O-])C(F)(F)F` [present compound 33, N-(2,6-Dinitro-4-trifluoromethylphenyl)-2,2,2-trifluoroacetamidine], the mortality at 500 µg/mL in test [1] and in test [2] was 100% each time.
In test [3], `NC(=Nc1c([N+](=O)[O-])cc(C(F)(F)C(F)(F)C(F)(F)F)cc1[N+](=O)[O-])C(F)(F)C(F)(F)C(F)(F)F` [present compound 48, N-(2,6-Dinitro-4-heptafluoropropylphenyl)-2,2,3,3,4,4,4-heptafluorobutyramidine] displayed a mortality at 3.5 ppm of 100%.
`NC(=Nc1c([N+](=O)[O-])cc(C(F)(F)C(F)(F)C(F)(F)F)cc1[N+](=O)[O-])C(F)(F)F` [present compound 49, N-(2,6-Dinitro-4-heptafluoropropylphenyl)-2,2,2-trifluoroacetamidine] registered a mortality at 3.5 ppm in test [3] of 100%. The same molecule registered a mortality at 500 µg/mL in test [1] of 100%.
In test [3], `NC(=Nc1c([N+](=O)[O-])cc(C(F)(C(F)(F)F)C(F)(F)F)cc1[N+](=O)[O-])C(F)(F)C(F)(F)C(F)(F)F` [present compound 50, N-{2,6-Dinitro-4-(1,2,2,2-tetrafluoro-1-trifluoromethylethyl)phenyl}-2,2,3,3,4,4,4-heptafluorobutyramidine] returned a mortality at 3.5 ppm of 100%. Besides, the mortality at 500 µg/mL in test [1] came out at 100%.
As to `CN(C)C(=Nc1c(Cl)cc(C(F)(F)F)cc1Cl)C(F)(F)F` [present compound 52, N′-(2,6-dichloro-4-trifluoromethylphenyl)-2,2,2-trifluoro-N,N-dimethylacetamidine], the mortality at 500 µg/mL in test [1] and in test [2] was 100% in each case.
`CCCN(CCC)C(=Nc1c(Cl)cc(C(F)(F)F)cc1Cl)C(F)(F)F` [present compound 56, N′-(2,6-dichloro-4-trifluoromethylphenyl)-2,2,2-trifluoro-N,N-dipropylacetamidine]: the mortality at 500 µg/mL in test [1] is 100%.
Molecule `CCN(CC)C(=Nc1c(Cl)cc(C(F)(F)F)cc1Cl)C(F)(F)F` [present compound 57, N′-(2,6-Dichloro-4-trifluoromethylphenyl)-N,N-diethyl-2,2,2-trifluoroacetamidine] registered a mortality at 3.5 ppm in test [3] of 100%. In addition, the mortality at 500 µg/mL in test [1] is 100%.
As to `CCNC(=Nc1c(Cl)cc(C(F)(F)F)cc1Cl)C(Cl)Cl` [present compound 58, N′-(2,6-Dichloro-4-trifluoromethylphenyl)-2,2-dichloro-N-ethylacetamidine], the mortality at 3.5 ppm in test [3] was found to be 100%. Further, the mortality at 500 µg/mL in test [1] came to 100%.
In turn, `CCNC(=Nc1c([N+](=O)[O-])cc(C(F)(F)F)cc1[N+](=O)[O-])C(Cl)Cl` [present compound 59, 2,2-Dichloro-N′-(2,6-dinitro-4-trifluoromethylphenyl)-N-ethylacetamidine] returned a mortality at 3.5 ppm in test [3] of 100%. The mortality at 500 µg/mL in test [1] stood at 100%.

As a reminder, the mortality is the share of the test organisms that died.
